Experimental data from article PMC8151276, “An Integrated Approach toward NanoBRET Tracers for Analysis of GPCR Ligand Engagement” (Molecules, 2021).

Legend:
Type in all cases: binding
CCR3 = target: T1, CCR3 (Homo sapiens, UniProt P51677); experiment: NanoBRET screen HiBiT-CCR3 in HEK293; conditions: CCR3
T1 construct: purchased Promega (in-house HiBiT-GPCR construct library, NanoBRET)
T1 sequence (P51677 1-355): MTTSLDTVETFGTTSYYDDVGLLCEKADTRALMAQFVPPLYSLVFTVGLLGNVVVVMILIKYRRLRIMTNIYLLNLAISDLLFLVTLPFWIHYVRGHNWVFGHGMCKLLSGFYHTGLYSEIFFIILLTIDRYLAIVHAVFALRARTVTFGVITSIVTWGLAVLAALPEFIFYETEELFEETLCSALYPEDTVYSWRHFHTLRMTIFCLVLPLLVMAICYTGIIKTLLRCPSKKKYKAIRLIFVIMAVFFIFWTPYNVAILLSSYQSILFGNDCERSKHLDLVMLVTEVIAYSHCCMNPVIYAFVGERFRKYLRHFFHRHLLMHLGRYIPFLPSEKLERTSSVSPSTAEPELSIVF
Procedure: (§1) Each tracer candidate was screened across the entire library of HiBiT-GPCR constructs using NanoBRET as the detection modality. As depicted in Figure 4A, the specificity of interactions was evaluated through decrease in BRET due to competitive displacement of a bound tracer by excess parental compound. Each tracer was analyzed for binding to each HiBiT-GPCR fusion in the absence and in the presence of competing parental compound. Briefly, HEK293 cells were transfected with HiBiT-GPCR constructs diluted into promoterless DNA to reduce expression and maximize translocation to the cell surface. Each tracer candidate was then screened at concentrations of 1 μM and 0.1 μM across cells expressing these fusions. Cells were treated for 1.5 h with tracer either alone or in the presence of 20 μM competing parental compound (i.e., control). BRET was measured upon addition of purified LgBiT and subsequent complementation with HiBiT genetically fused to a GPCR. The specificity of interactions was assessed through a decrease in BRET signal due to competitive displacement of the bound tracer. To further gauge the robustness of these interactions, the fold response over the control (i.e., BRETtracer/BRETcontrol) was calculated. We chose a 1.5-fold response, which translates to ≥7-fold signal over noise as the minimal threshold required to score an interaction as positive. […]. Below we highlight the screening results obtained for our exemplary fluorescent tracers based on Clozapine, Amitriptyline and AZD1283.
(§2) HiBiT-GPCR DNA constructs were diluted in 10 mM Tris pH 8 to a final concentration of 0.01 μg/μL, arrayed in 96-well plates and stored at −20 °C. For transfection, HEK293 cells were suspended in Opti-MEM (without phenol red) supplemented with 2% fetal bovine serum (Seradigm) and 100 units/mL penicillin–streptomycin (Gibco) at a final concentration of 220,000 cells/mL and dispensed into white 96-well plates at 90 μL/well. Subsequent transfections and screens were carried using an Agilent Bravo Automated Liquid Handling Platform. First, the 96-well HiBiT DNA arrays were diluted 25-fold in Opti-MEM (without serum or phenol red) to a final concentration of 0.0004 μg/μL and 20 μL of the diluted DNAs were transferred into new 96-well plates. Next, promoterless carrier DNA (1 μg/μL) was diluted 25-fold (0.04 μg/μL) and then dispensed into the diluted arrays at 20 μL/well. Following brief mixing, Viafect transfection reagent (Promega) diluted 16-fold into Opti-MEM was dispensed into the plates at 40 μL/well. After mixing by pipetting, plates were incubated for 10 min on the pipetting station deck. The DNA-transfection reagent complexes were then added to plates containing cells. To facilitate the screen, 10 μL of DNA-transfection reagent complexes were added in duplicates to the top 4 and bottom 4 rows, resulting in two identical 48-well arrays per plate. Plates with transfected cells were incubated for 18–20 h at 37 °C/5% CO2. A screen of each tracer across the entire library using two different concentrations requires duplicate plates of transfected cells. Depending on the number of tracers being screened, transfections can be scaled up using the same ratios. The next day, for each tracer, four 20× screening solutions in tracer dilution buffer (Promega) were prepared: two duplicates at final concentration of 20 μM and two duplicates at a final concentration of 2 μM. A competing unmodified compound was added to one of each duplicate at a final concentration of 400 μM. The four resulting solutions were diluted 4-fold in Opti-MEM without serum or phenol red to generate 5× solutions (5 µM and 0.5 µM tracer +/− 100 μM competing compound). To screen the library, a BioTek MultiFlo FX liquid dispenser was used to dispense 22.5 µL of tracer solution to the top 4 rows and 22.5 µL tracer + competing compound solution to the 4 bottom rows. Plates were briefly mixed on an orbital shaker and incubated for 1.5 h at room temperature. […]

HTR1B = target: T2, HTR1B (Homo sapiens, UniProt P28222); experiment: NanoBRET screen HiBiT-HTR1B in HEK293; conditions: HTR1B
T2 construct: purchased Promega (in-house HiBiT-GPCR construct library, NanoBRET)
T2 sequence (P28222 whole entry): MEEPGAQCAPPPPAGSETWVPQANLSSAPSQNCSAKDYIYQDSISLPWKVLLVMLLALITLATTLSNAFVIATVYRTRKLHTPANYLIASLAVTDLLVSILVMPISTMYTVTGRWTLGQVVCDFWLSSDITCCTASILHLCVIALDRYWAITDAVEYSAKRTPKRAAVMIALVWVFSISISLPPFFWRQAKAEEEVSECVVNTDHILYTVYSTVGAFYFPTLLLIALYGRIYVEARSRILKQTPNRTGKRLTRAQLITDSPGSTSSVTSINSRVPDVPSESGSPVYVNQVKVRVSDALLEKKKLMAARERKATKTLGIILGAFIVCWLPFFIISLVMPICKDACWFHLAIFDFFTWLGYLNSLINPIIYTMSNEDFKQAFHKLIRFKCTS
Procedure: as §1, §2

FPR1 = target: T3, FPR1 (Homo sapiens, UniProt P21462); experiment: NanoBRET screen HiBiT-FPR1 in HEK293; conditions: FPR1
T3 construct: purchased Promega (in-house HiBiT-GPCR construct library, NanoBRET)
T3 sequence (P21462 1-350): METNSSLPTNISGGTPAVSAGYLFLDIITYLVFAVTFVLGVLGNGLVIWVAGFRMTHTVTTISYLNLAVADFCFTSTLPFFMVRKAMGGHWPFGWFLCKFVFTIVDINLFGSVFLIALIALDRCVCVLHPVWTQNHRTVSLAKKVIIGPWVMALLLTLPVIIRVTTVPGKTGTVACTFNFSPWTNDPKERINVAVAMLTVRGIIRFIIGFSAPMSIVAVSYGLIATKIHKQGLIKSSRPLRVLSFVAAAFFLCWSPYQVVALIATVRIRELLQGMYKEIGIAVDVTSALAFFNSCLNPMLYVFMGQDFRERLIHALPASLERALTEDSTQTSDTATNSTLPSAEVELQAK
Procedure: as §1, §2

TBXA2R = target: T4, TBXA2R (Homo sapiens, UniProt P21731); experiment: NanoBRET screen HiBiT-TBXA2R in HEK293; conditions: TBXA2R
T4 construct: purchased Promega (in-house HiBiT-GPCR construct library, NanoBRET)
T4 sequence (P21731 1-343): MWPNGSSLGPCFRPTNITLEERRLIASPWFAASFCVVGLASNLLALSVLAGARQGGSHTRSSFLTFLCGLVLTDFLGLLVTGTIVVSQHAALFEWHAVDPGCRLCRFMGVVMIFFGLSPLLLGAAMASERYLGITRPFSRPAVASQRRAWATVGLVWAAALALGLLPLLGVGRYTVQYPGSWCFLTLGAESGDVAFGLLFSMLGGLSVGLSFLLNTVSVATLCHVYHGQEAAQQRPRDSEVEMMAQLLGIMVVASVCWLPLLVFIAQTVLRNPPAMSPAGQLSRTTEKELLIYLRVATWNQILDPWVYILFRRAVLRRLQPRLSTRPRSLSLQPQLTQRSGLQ
Procedure: as §1, §2

CNR1 = target: T5, CNR1 (Homo sapiens, UniProt P21554); experiment: NanoBRET screen HiBiT-CNR1 in HEK293; conditions: CNR1
T5 construct: purchased Promega (in-house HiBiT-GPCR construct library, NanoBRET)
T5 sequence (P21554 whole entry): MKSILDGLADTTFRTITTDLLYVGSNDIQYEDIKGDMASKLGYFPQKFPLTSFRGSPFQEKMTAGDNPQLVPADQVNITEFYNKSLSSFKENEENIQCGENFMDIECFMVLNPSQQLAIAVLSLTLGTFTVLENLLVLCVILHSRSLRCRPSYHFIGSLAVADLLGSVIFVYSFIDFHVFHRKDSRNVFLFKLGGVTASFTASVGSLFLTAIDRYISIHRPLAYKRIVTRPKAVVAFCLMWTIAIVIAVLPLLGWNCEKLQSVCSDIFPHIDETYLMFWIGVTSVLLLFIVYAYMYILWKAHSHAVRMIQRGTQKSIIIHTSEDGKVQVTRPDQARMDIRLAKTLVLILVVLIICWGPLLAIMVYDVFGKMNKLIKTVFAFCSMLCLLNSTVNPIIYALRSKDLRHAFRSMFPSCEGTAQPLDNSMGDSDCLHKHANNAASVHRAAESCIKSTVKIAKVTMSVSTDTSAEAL
Procedure: as §1, §2

Row | SMILES | NanoBRET Fold Response (CCR3; tracer 0.1μM) | NanoBRET Fold Response (CCR3; tracer 1μM) | NanoBRET Fold Response (HTR1B; tracer 0.1μM) | NanoBRET Fold Response (HTR1B; tracer 1μM) | NanoBRET Fold Response (FPR1; tracer 0.1μM) | NanoBRET Fold Response (FPR1; tracer 1μM) | NanoBRET Fold Response (TBXA2R; tracer 0.1μM) | NanoBRET Fold Response (TBXA2R; tracer 1μM) | NanoBRET Fold Response (CNR1; tracer 0.1μM) | NanoBRET Fold Response (CNR1; tracer 1μM) | further results
1 | CN1CCN(C2=Nc3cc(Cl)ccc3N(CC(=O)NCCOCCOCCOCCOCCNC(=O)CCc3ccc4n3[B-](F)(F)[N+]3=C(c5ccc[nH]5)C=CC3=C4)c3ccccc32)CC1 [Clozapine-c-2-NB590] |  |  |  |  |  |  |  |  |  |  | NanoBRET Fold Response (CCR3; 0.1μM tracer): 0.97; NanoBRET Fold Response (CCR3; 1μM tracer): 0.85; NanoBRET Fold Response (HTR1B; 0.1μM tracer): 0.95; NanoBRET Fold Response (HTR1B; 1μM tracer): 1.47; NanoBRET Fold Response (FPR1; 0.1μM tracer): 0.98; NanoBRET Fold Response (FPR1; 1μM tracer): 1.04; NanoBRET Fold Response (TBXA2R; 0.1μM tracer): 1.03; NanoBRET Fold Response (TBXA2R; 1μM tracer): 0.95; NanoBRET Fold Response (CNR1; 0.1μM tracer): 0.99; NanoBRET Fold Response (CNR1; 1μM tracer): 1.05
2 | O=C(CCOCCOCCOCCOCCNC(=O)CCc1ccc2n1[B-](F)(F)[N+]1=C(c3ccc[nH]3)C=CC1=C2)NCCCN1CCN(C2=Nc3ccccc3Oc3ccc(Cl)cc32)CC1 [Loxapine-a-2-NB590] | 1.02 | 1.02 | 2.42 | 2.84 | 0.99 | 1.10 | 0.99 | 1.03 | 0.72 | 0.29 | 
3 | COc1ccccc1N1CCN(CCCCN2C(=O)c3ccc(CNC(=O)CCOCCOCCOCCOCCNC(=O)CCc4ccc5n4[B-](F)(F)[N+]4=C(c6ccc[nH]6)C=CC4=C5)cc3C2=O)CC1 [NAN-190-2-NB590] | 1.08 | 1.11 | 1.73 | 1.25 | 1.09 | 1.04 | 1.07 | 1.06 | 1.02 |  | 
4 | COc1ccccc1N1CCN(CCCCN2C(=O)c3ccc(CNC(=O)CCOCCNC(=O)c4ccc(CNC(=O)CCc5ccc6n5[B-](F)(F)[N+]5=C(c7ccc[nH]7)C=CC5=C6)cc4)cc3C2=O)CC1 [NAN-190-3-NB590] | 1.02 | 1.02 | 1.38 | 1.42 | 0.95 | 1.09 | 1.08 | 1.15 | 1.10 | 1.01 | 
5 | O=C(CCc1ccc2n1[B-](F)(F)[N+]1=C(c3ccc[nH]3)C=CC1=C2)NCc1ccc(C(=O)NCCOCCC(=O)N[C@@H]2CC[C@@]3(O)[C@H]4Cc5ccc(O)c6c5[C@@]3(CCN4CC3CC3)[C@H]2O6)cc1 [Naltrexone-3-NB590] | 1.35 | 0.89 | 1.01 | 1.33 | 0.90 | 0.98 | 1.24 | 1.13 | 0.96 | 0.95 | 
6 | Cc1cc2c(s1)Nc1ccccc1N=C2N1CCN(CCCNC(=O)CCOCCOCCOCCOCCNC(=O)CCc2ccc3n2[B-](F)(F)[N+]2=C(c4ccc[nH]4)C=CC2=C3)CC1 [Olanzapine-a-2-NB590] | 1.19 | 1.22 | 2.53 | 2.81 | 1.09 | 1.01 | 0.95 | 1.02 | 0.99 | 1.05 | 
7 | O=C(CCc1ccc2n1[B-](F)(F)[N+]1=C(c3ccc[nH]3)C=CC1=C2)NCc1ccc(C(=O)NCCOCCOCCNCC(O)COc2cccc3ccccc23)cc1 (stereo not drawn) [Propranolol-3-NB590] |  |  |  |  |  |  |  |  |  |  | NanoBRET Fold Response (CCR3; 0.1μM): 1.04; NanoBRET Fold Response (CCR3; 1μM): 1.01; NanoBRET Fold Response (HTR1B; 0.1μM): 0.99; NanoBRET Fold Response (HTR1B; 1μM): 1.06; NanoBRET Fold Response (FPR1; 0.1μM): 1.02; NanoBRET Fold Response (FPR1; 1μM): 0.98; NanoBRET Fold Response (TBXA2R; 0.1μM): 0.97; NanoBRET Fold Response (TBXA2R; 1μM): 1.09; NanoBRET Fold Response (CNR1; 0.1μM): 0.99; NanoBRET Fold Response (CNR1; 1μM): 1.00
